From ChEMBL document CHEMBL1136844, “Discovery of novel small molecule cell type-specific enhancers of NF-kappaB nuclear translocation” (Bioorg Med Chem Lett, 2009)
Active and inactive are the calls of the source. The rule behind the calls is not given here.

Legend:
[1] = biological target: Transcription factor p65 (Homo sapiens) (UniProt Q04206); assay: Potentiation of TNF-alpha-induced NF-kappaB p65 nuclear translocation in HUVEC cells by immunostaining; type: cell-based
[2] = biological target: Transcription factor p65 (Homo sapiens) (UniProt Q04206); assay: Induction of NF-kappaB p65 nuclear translocation in HUVEC cells by immunostaining; type: cell-based

Sequence of Transcription factor p65 (Homo sapiens) (Q04206 whole entry): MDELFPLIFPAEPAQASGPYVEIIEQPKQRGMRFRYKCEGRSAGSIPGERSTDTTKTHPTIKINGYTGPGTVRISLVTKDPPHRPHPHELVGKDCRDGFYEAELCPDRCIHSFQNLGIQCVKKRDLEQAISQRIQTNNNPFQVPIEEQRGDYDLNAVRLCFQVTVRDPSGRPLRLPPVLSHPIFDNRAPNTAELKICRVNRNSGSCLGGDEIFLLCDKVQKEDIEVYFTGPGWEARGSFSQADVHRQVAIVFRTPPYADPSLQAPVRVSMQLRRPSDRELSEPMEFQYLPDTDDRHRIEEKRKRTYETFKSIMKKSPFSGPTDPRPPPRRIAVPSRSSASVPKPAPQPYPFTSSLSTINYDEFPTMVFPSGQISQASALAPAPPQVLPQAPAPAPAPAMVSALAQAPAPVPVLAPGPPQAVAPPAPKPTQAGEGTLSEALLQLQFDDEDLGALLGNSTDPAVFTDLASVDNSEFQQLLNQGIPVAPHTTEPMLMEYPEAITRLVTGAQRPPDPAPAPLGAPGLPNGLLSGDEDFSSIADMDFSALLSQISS

SMILES | Activity [1] | Activity [2]
COc1ccc2nc(-c3cccs3)nc(NCc3ccccc3Cl)c2c1 | inactive | inactive
COc1ccc2nc(-c3cccs3)nc(NCCN3CCOCC3)c2c1 | inactive | inactive
COc1ccc2nc(-c3cccs3)nc(NNS(=O)(=O)c3ccc(C)cc3)c2c1 | inactive | inactive
COc1cccc2nc(-c3cccs3)nc(NN3C(=O)CC(C)C3=O)c12 (configuration not stated) | inactive | inactive
COc1ccc2nc(-c3cccs3)nc(N3CCOCC3)c2c1 | inactive | inactive
COc1ccc(CCNc2nc(-c3cccs3)nc3ccc(OC)cc23)cc1 | inactive | inactive
